Values of other authors in article PMC13427755 (Nature Communications, 2026).
Where two headings read alike, the source gives them in different places.

Test system: SP-D
Conditions: at 12 weeks, cited from earlier work

Structure (SMILES)	decrease in SP-D (INMARK study of nintedanib) [%]	decrease in SP-D (CAPACITY study of pirfenidone) [%]
COC(=O)c1ccc2c(c1)NC(=O)/C2=C(\Nc1ccc(N(C)C(=O)CN2CCN(C)CC2)cc1)c1ccccc1 [nintedanib]	4	–
Cc1ccc(=O)n(-c2ccccc2)c1 [pirfenidone]	–	5
